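Test compounds were applied to cells in 96-well plates for 48 hours at 5 doses. TGI: concentration producing complete growth inhibition.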
Legend:
Experiment in all cases: NCI tumour cell line growth inhibition, 48 h
[1] = test system: HL-60(TB) leukemia
[2] = test system: CCRF-CEM leukemia
[3] = test system: HCT-116 colon
[4] = test system: RXF 393 renal
[5] = test system: DLD-1 colon
[6] = test system: HOP-18 NSCLC
[7] = test system: SW-620 colon
[8] = test system: SNB-75 CNS
[9] = test system: SR leukemia
[10] = test system: XF 498 CNS
[11] = test system: LOX IMVI melanoma
[12] = test system: SNB-78 CNS
[13] = test system: NCI-H226 lung
[14] = test system: OVCAR-4 ovarian
[15] = test system: IGROV1 ovarian
[16] = test system: DMS 114 small cell lung
[17] = test system: A549 NSCLC
[18] = test system: NCI-H23 lung
[19] = test system: NCI-H460 lung
[20] = test system: HCC-2998 colon
[21] = test system: SN12C renal
[22] = test system: SF-295 CNS
[23] = test system: HOP-62 NSCLC
[24] = test system: MOLT-4 leukemia
[25] = test system: MALME-3M melanoma
[26] = test system: COLO 205 colon
[27] = test system: CAKI-1 renal
[28] = test system: SF-268 CNS
[29] = test system: NCI-H522 lung
[30] = test system: EKVX NSCLC
[31] = test system: U251 CNS
[32] = test system: KM12 colon
[33] = test system: SK-MEL-5 melanoma
[34] = test system: UACC-257 melanoma
[35] = test system: A498 renal
[36] = test system: KM20L2 colon
[37] = test system: M19-MEL melanoma
[38] = test system: DMS 273 small cell lung
[39] = test system: M14 melanoma
[40] = test system: HCT-15 colon
[41] = test system: OVCAR-8 ovarian
[42] = test system: RPMI-8226 leukemia
[43] = test system: SF-539 CNS
[44] = test system: SK-MEL-2 melanoma
[45] = test system: TK-10 renal
[46] = test system: HT29 colon
[47] = test system: K-562 leukemia
[48] = test system: RXF-631 renal
[49] = test system: UO-31 renal
[50] = test system: SK-MEL-28 melanoma
[51] = test system: OVCAR-5 ovarian
[52] = test system: UACC-62 melanoma
[53] = test system: OVCAR-3 ovarian
[54] = test system: LXFL 529 NSCLC
[55] = test system: SK-OV-3 ovarian
[56] = test system: ACHN renal
[57] = test system: SNB-19 CNS
[58] = test system: HOP-92 NSCLC
[59] = test system: 786-0 renal

NC(=S)Nc1cc(Cl)ccc1Cl
TGI [1]: > 100 µM
TGI [2]: > 100 µM
TGI [3]: > 100 µM
TGI [4]: > 100 µM
TGI [5]: > 100 µM
TGI [6]: > 100 µM
TGI [7]: > 100 µM
TGI [8]: > 100 µM
TGI [9]: > 100 µM
TGI [10]: > 100 µM
TGI [11]: > 100 µM
TGI [12]: > 100 µM
TGI [13]: > 100 µM
TGI [14]: > 100 µM
TGI [15]: > 100 µM
TGI [16]: > 100 µM
TGI [17]: > 100 µM
TGI [18]: > 100 µM
TGI [19]: > 100 µM
TGI [20]: > 100 µM
TGI [21]: > 100 µM
TGI [22]: > 100 µM
TGI [23]: > 100 µM
TGI [24]: > 100 µM
TGI [25]: > 100 µM
TGI [26]: > 100 µM
TGI [27]: > 100 µM
TGI [28]: > 100 µM
TGI [29]: > 100 µM
TGI [30]: > 100 µM
TGI [31]: > 100 µM
TGI [32]: > 100 µM
TGI [33]: > 100 µM
TGI [34]: > 100 µM
TGI [35]: > 100 µM
TGI [36]: > 100 µM
TGI [37]: > 100 µM
TGI [38]: > 100 µM
TGI [39]: > 100 µM
TGI [40]: > 100 µM
TGI [41]: > 100 µM
TGI [42]: > 100 µM
TGI [43]: > 100 µM
TGI [44]: > 100 µM
TGI [45]: > 100 µM
TGI [46]: > 100 µM
TGI [47]: > 100 µM
TGI [48]: > 100 µM
TGI [49]: > 100 µM
TGI [50]: > 100 µM
TGI [51]: > 100 µM
TGI [52]: > 100 µM
TGI [53]: > 100 µM
TGI [54]: > 100 µM
TGI [55]: > 100 µM
TGI [56]: > 100 µM
TGI [57]: > 100 µM
TGI [58]: > 100 µM

COc1ccc2c3c(n(Cc4ccccc4)c(=O)c2c1)-c1cc(OC)c(OC)cc1C3C (configuration not stated)
TGI [1]: > 100 µM
TGI [2]: > 100 µM
TGI [3]: > 100 µM
TGI [4]: 48.8 µM
TGI [5]: > 100 µM
TGI [6]: > 100 µM
TGI [7]: > 100 µM
TGI [8]: 45.4 µM
TGI [9]: > 100 µM
TGI [10]: 38 µM
TGI [11]: > 100 µM
TGI [12]: > 100 µM
TGI [13]: > 75.9 µM
TGI [14]: 47.7 µM
TGI [15]: > 100 µM
TGI [16]: > 89.2 µM
TGI [17]: > 100 µM
TGI [18]: > 100 µM
TGI [19]: 21.7 µM
TGI [20]: > 100 µM
TGI [21]: > 100 µM
TGI [22]: 31.4 µM
TGI [23]: > 70 µM
TGI [24]: > 100 µM
TGI [25]: 57.6 µM
TGI [26]: > 100 µM
TGI [27]: > 100 µM
TGI [28]: > 63.6 µM
TGI [29]: 47.8 µM
TGI [30]: 52.8 µM
TGI [31]: 35.8 µM
TGI [32]: > 100 µM
TGI [33]: 51.5 µM
TGI [34]: > 100 µM
TGI [35]: 97.8 µM
TGI [36]: > 100 µM
TGI [37]: > 73.1 µM
TGI [38]: 38.6 µM
TGI [39]: > 100 µM
TGI [40]: > 100 µM
TGI [41]: > 100 µM
TGI [42]: > 100 µM
TGI [43]: 24.4 µM
TGI [44]: 46 µM
TGI [59]: 27.7 µM
TGI [45]: > 100 µM
TGI [46]: > 84.8 µM
TGI [47]: > 100 µM
TGI [48]: > 100 µM
TGI [49]: > 100 µM
TGI [50]: > 100 µM
TGI [51]: > 100 µM
TGI [52]: 69.9 µM
TGI [53]: > 100 µM
TGI [54]: > 53 µM
TGI [55]: > 80.4 µM
TGI [56]: 43.9 µM
TGI [57]: > 84.9 µM
TGI [58]: 42.6 µM

From PubChem BioAssay (NCI)
